Experimental data reported in patent US9248171B2, “Immunogenic peptides and their use in transplantation” (IMCYSE SA, priority 2008, dated 2016).
Marks after values point to notes of the source that are not given here.

Columns and labels:
[1] = tested on: Bm12 mouse skin allograft; test: Rejection of Bm12 skin graft (MHC class II mismatch) in pre-immunized C57B1/6 mice; type: in vivo; settings: 3 subcutaneous administrations in CFA/IFA at fortnight intervals
Source text: The Bm12 mice constitute a variant of the C57B1/6 mice in which a spontaneous mutation has occurred in the I-Ab locus. This mutation consists of 3 amino acid substitutions in a stretch of 5 amino acids and thereby generates a limited MHC class II mismatch between Bm12 mice and C57B1/6 wild type mice. This mismatch is nevertheless sufficient as to elicit rejection of Bm12 mouse skin allograft.
The 3 substituted amino acids are Ile67Phe, Arg70Gln and Thr71Lys located in the third hypervariable region of the beta chain. A synthetic peptide encompassing these residues was made and has the sequence: PEFLEQKRA (SEQ ID. NO: 10). This peptide was modified according to the invention by incorporation of a thioreductase consensus sequence, resulting in the exemplary immunogenic peptide CGHCPEFLEQKRA (SEQ ID. NO: 11).
Cytotoxic CD4+ regulatory T cells towards the modified peptide of SEQ ID. NO: 11 are elicited in C57B1/6 mice by 3 subcutaneous administration of the peptide in CFA/IFA given at fortnight intervals. Such mice are then grafted with the skin of Bm12 mice.

[2] = tested on: male C57B1/6 skin allograft; test: Skin graft rejection, male skin onto pre-immunized syngeneic female mice (naive mice); type: in vivo, C57B1/6 mice; settings: for Rejection rate Day 10 / Rejection rate Day 20: 3 SC injections, rejected mice/mice, rejection = more than 50% of graft surface necrotic; for Effect of pre-immunization on skin graft rejection (in words): pre-immunization in either CFA/IFA or alum
Procedure: One of the most studied models of graft rejection is skin grafting between syngeneic animals of different sex. Thus, the […] contains a number of genes, in particular the Dby gene, which encodes a minor histocompatibility antigen that elicits strong CD4+ T cell activation and chronic rejection in females. […] T cell epitopes from the Dby antigen have been described and selected as shown in Example 1 (peptide of SEQ ID. NO: 5). A synthetic peptide of SEQ ID. NO: 6 was prepared. Groups of 3 female C57B1/6 mice (H-2b haplotype) were made for testing the capacity of modified peptides of SEQ ID NO:1 to elicit tolerance to the skin allograft. Where applicable, pre-immunization was carried out by 3 subcutaneous injections of peptides containing either the natural epitope or its modified counterpart. Injections were made at fortnight intervals in either CFA/IFA or alum. Groups were therefore as follows: • Group 1: skin allograft without preimmunization • Group 2: skin autograft • Group 3: preimmunization with peptide of SEQ ID. NO: 6 emulsified in CFA (first immunization) and IFA for second and third immunization) • Group 4: same as in Group 3, but with alum as an adjuvant • Group 5: same as in Group 3, but using the natural peptide of SEQ ID. NO: 5 All these mice, except for Group 2 mice, received a male C57B1/6 skin allograft of 1 cm2, either directly (Group 1) or 2 weeks after the last immunization for Groups 3, 4 and 5. Group 2 mice received and autograft. Rejection rate was evaluated at day 10 and 20 and judged effective if more than 50% of the graft surface was necrotic.

[3] = tested on: heterotopic male heart transplant; test: Heterotopic male heart transplant in pre-immunized syngeneic female mice; type: in vivo, C57B1/6 mice; settings: 3 subcutaneous injections at fortnight intervals in CFA/IFA
Source text: To establish the proof of concept that cytolytic regulatory CD4+ T cells of the present invention can prevent rejection of a vascularized organ, the model of heterotopic heart transplantation is used. This method is well known in the art, as described for instance in Kadner A et al, European Journal of Cardio-thoracic Surgery (2000) 17: 474-481. Briefly, the method consists in abdominal implantation of the heart in a non-working setting, namely the heart is vascularized but not supporting the circulation. This allows long-term follow-up of the graft and multiple biopsies without killing the experimental animal.
Hearts from C57BL/6 males are grafted using such technique in the abdomen of syngeneic females. The rejection process, which is mediated by expression of H-Y-derived antigens in both MHC class I and MHC class II determinants, is mainly due to the circulation of recipient's specific CD4+ T cells that are activated by recognition of alloantigen-derived peptides by graft endothelial cells. Such CD4+ T cells produce IL-2 and IFN-gamma, driving more inflammation and providing help for the maturation of specific CD8+ T cells.
C57B1/6 female mice are pre-immunized before receiving the male allograft with peptides of either SEQ ID NO:5, SEQ ID NO:6 or a sham peptide. This is carried out by 3 subcutaneous injections of peptides made at fortnight intervals in either CFA/IFA. Thereafter, all mice receive a heterotopic male heart transplant.

[4] = tested on: APC (antigen-presenting cells); test: Apoptosis of peptide-loaded APC (Annexin V binding) induced by CD4+ T cells from immunized mice (Dby peptides); type: cell-based, C57B1/6 mice; settings: 10 μg peptide SC in CFA then IFA; APC loaded with SEQ ID. NO: 5 or SEQ ID. NO: 6
Procedure: Groups of C57BL/6 female mice were immunized with 10 μg of peptide of SEQ ID. NO: 6 emulsified in CFA (complete Freund's adjuvant) for the first SC (subcutaneous) injection and in IFA (incomplete Freund's adjuvant) for the two subsequent immunizations. The spleen of such mice was retrieved 10 days after the last immunization and CD4+ T cells were obtained by cell sorting using magnetic beads.
These CD4+ T cells were assayed in vitro for their capacity to induce apoptosis of APC (antigen-presenting cells). Thus, spleen cells of naïve C57B1/6 mice were deprived of CD4+ T cells by magnetic bead sorting and used as APC. Such APC were loaded with peptides of either SEQ ID. NO: 5 or of SEQ ID. NO: 6 by incubation for 16 h at room temperature. The cells were then washed to eliminate residual free peptides.

| Sequence | Rejection of Bm12 skin graft after preimmunization [1] | Rejection rate Day 10 ([2]; pre-immunization in CFA/IFA) | Rejection rate Day 20 ([2]; pre-immunization in CFA/IFA) | Rejection rate Day 10 ([2]; pre-immunization in alum) | Rejection rate Day 20 ([2]; pre-immunization in alum) | Effect of pre-immunization on skin graft rejection (in words) [2] | Graft findings (cellular infiltration, endothelitis, chronic vascular lesions) [3] | Outcome of transplanted heart after pre-immunization [3] | APC apoptosis (surface binding of Annexin V) induced by CD4+ T cells of mice immunized with the peptide [4] |
| --- | --- | --- | --- | --- | --- | --- | --- | --- | --- |
| CGHCPEFLEQKRA (redox motif + mutated version of I-Ab locus) [SEQ ID. NO: 11] | reject the B12m graft unless they are preimmunized with the peptide of SEQ ID. NO: 11 | – | – | – | – | – | – | – | – |
| CHGCFNSNRANSS (redox motif + T cell epitope of Dby antigen) [SEQ ID. NO: 6] | – | 0/3 | 0/3 | 0/3 | 0/3 | fully prevents graft rejection | absence of cellular infiltration, of signs of endothelitis and of chronic vascular lesions | tolerate the graft | induced into apoptosis |
| FNSNRANSS (T cell epitope of Dby antigen) [SEQ ID. NO: 5, reference compound] | – | 2/3 | 2/3** | – | – | accelerates the rejection | – | show rejection of the transplanted heart | did not induce any significant degree of APC apoptosis |
